Data on six compounds can be found in PubChem BioAssay AID248 (DTP/NCI, 2004).

This test concerns L1210 leukemia ip in BDF1 mice, survival T/C. The test is described as follows: NCI In Vivo Anticancer Drug Screen. Data for tumor model L1210 Leukemia (intraperitoneal) in B6D2F1 (BDF1) mice. The conditions noted are these: higher = longer survival. The gist of the method: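 Antitumor effect is assessed in tumor-bearing animals. Survival in the compound arm is compared with a vehicle-dosed control arm and expressed as their quotient.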

Where [1] appears, read: endpoint: mean survival time, dose: 100.0 mg/kg/injection, schedule: Q01DX009 (ip), vehicle: Klucel (hydroxypropylcellulose) (HPC).
The mark [2] stands for this setting: endpoint: mean survival time, dose: 200.0 mg/kg/injection, schedule: Q01DX009 (ip), vehicle: Klucel (hydroxypropylcellulose) (HPC).
Setting [3] is: endpoint: mean survival time, dose: 400.0 mg/kg/injection, schedule: Q01DX009 (ip), vehicle: Klucel (hydroxypropylcellulose) (HPC).

Values joined by “and” are separate entries in the source; they are usually repeats but may differ in a detail not shown here. Equal values may be shown once. Toxic doses and inconclusive results are not listed.

Turning to `CC[C@H]1CN2CCc3cc(OC)c(OC)cc3[C@@H]2C[C@@H]1C[C@H]1NCCc2cc(O)c(OC)cc21`, the T/C by setting is: (endpoint: mean survival time, dose: 0.5 mg/kg/injection, schedule: Q01DX015 (ip), vehicle: saline) 105 % of control and 119 % of control; (endpoint: mean survival time, dose: 1.0 mg/kg/injection, schedule: Q01DX009 (ip), vehicle: saline) 116 % of control; (endpoint: mean survival time, dose: 1.0 mg/kg/injection, schedule: Q01DX015 (ip), vehicle: saline) 115 % of control and 120 % of control; (endpoint: mean survival time, dose: 2.0 mg/kg/injection, schedule: Q01DX009 (ip), vehicle: saline) 115 % of control; (endpoint: mean survival time, dose: 2.0 mg/kg/injection, schedule: Q## X003 (ip), vehicle: saline) 104 % of control; (endpoint: mean survival time, dose: 2.0 mg/kg/injection, schedule: Q## X024 (ip), vehicle: saline) 114 % of control. The T/C (endpoint: mean survival time, dose: 3.0 mg/kg/injection, schedule: Q01DX001 (oral), vehicle: saline) is 107 % of control; the T/C (endpoint: mean survival time, dose: 3.75 mg/kg/injection, schedule: Q01DX015 (ip), vehicle: saline) was 153 % of control; the T/C (endpoint: mean survival time, dose: 4.0 mg/kg/injection, schedule: Q01DX001 (ip), vehicle: saline) was 113 % of control; the T/C (endpoint: mean survival time, dose: 4.0 mg/kg/injection, schedule: Q01DX009 (ip), vehicle: saline) was 115 % of control; the T/C (endpoint: mean survival time, dose: 4.0 mg/kg/injection, schedule: Q01DX015 (ip), vehicle: saline) was 150 % of control; the T/C (endpoint: mean survival time, dose: 4.0 mg/kg/injection, schedule: Q04DX003 (ip), vehicle: saline) was 116 % of control. The T/C (endpoint: mean survival time, dose: 4.0 mg/kg/injection, schedule: Q## X002 (ip), vehicle: saline) is 103 % of control; the T/C (endpoint: mean survival time, dose: 4.0 mg/kg/injection, schedule: Q## X003 (ip), vehicle: saline) was 103 % of control; the T/C (endpoint: mean survival time, dose: 4.0 mg/kg/injection, schedule: Q## X008 (ip), vehicle: saline) is 116 % of control; the T/C (endpoint: mean survival time, dose: 4.0 mg/kg/injection, schedule: Q## X016 (ip), vehicle: saline) is 93 % of control; the T/C (endpoint: mean survival time, dose: 4.0 mg/kg/injection, schedule: Q## X024 (ip), vehicle: saline) is 122 % of control; the T/C (endpoint: mean survival time, dose: 6.0 mg/kg/injection, schedule: Q01DX001 (oral), vehicle: saline) is 103 % of control. In addition, the T/C runs as follows: (endpoint: mean survival time, dose: 8.0 mg/kg/injection, schedule: Q01DX001 (ip), vehicle: saline) 111 % of control; (endpoint: mean survival time, dose: 8.0 mg/kg/injection, schedule: Q01DX005 (ip), vehicle: saline) 157 % of control; (endpoint: mean survival time, dose: 8.0 mg/kg/injection, schedule: Q01DX009 (ip), vehicle: saline) 112 % of control and 86 % of control; (endpoint: mean survival time, dose: 8.0 mg/kg/injection, schedule: Q04DX003 (ip), vehicle: saline) 118 % of control; (endpoint: mean survival time, dose: 8.0 mg/kg/injection, schedule: Q## X002 (ip), vehicle: saline) 119 % of control; (endpoint: mean survival time, dose: 8.0 mg/kg/injection, schedule: Q## X003 (ip), vehicle: saline) 123 % of control. The T/C is, setting by setting: (endpoint: mean survival time, dose: 8.0 mg/kg/injection, schedule: Q## X008 (ip), vehicle: saline) 111 % of control; (endpoint: mean survival time, dose: 8.0 mg/kg/injection, schedule: Q## X016 (ip), vehicle: saline) 103 % of control; (endpoint: mean survival time, dose: 8.0 mg/kg/injection, schedule: Q## X024 (ip), vehicle: saline) 101 % of control; (endpoint: mean survival time, dose: 12.0 mg/kg/injection, schedule: Q01DX001 (oral), vehicle: saline) 96 % of control; (endpoint: mean survival time, dose: 15.0 mg/kg/injection, schedule: Q01DX015 (ip), vehicle: saline) 104 % of control; (endpoint: mean survival time, dose: 16.0 mg/kg/injection, schedule: Q01DX001 (ip), vehicle: saline) 118 % of control. For the same compound, the T/C is 162 % of control (endpoint: mean survival time, dose: 16.0 mg/kg/injection, schedule: Q01DX005 (ip), vehicle: saline); 123 % of control (endpoint: mean survival time, dose: 16.0 mg/kg/injection, schedule: Q01DX009 (ip), vehicle: saline); 102 % of control (endpoint: mean survival time, dose: 16.0 mg/kg/injection, schedule: Q01DX015 (ip), vehicle: saline); 112 % of control (endpoint: mean survival time, dose: 16.0 mg/kg/injection, schedule: Q## X002 (ip), vehicle: saline); 107 % of control (endpoint: mean survival time, dose: 16.0 mg/kg/injection, schedule: Q## X016 (ip), vehicle: saline); 86 % of control (endpoint: mean survival time, dose: 16.0 mg/kg/injection, schedule: Q## X024 (ip), vehicle: saline). Further, the T/C runs as follows: (endpoint: mean survival time, dose: 24.0 mg/kg/injection, schedule: Q01DX001 (oral), vehicle: saline) 102 % of control; (endpoint: mean survival time, dose: 32.0 mg/kg/injection, schedule: Q01DX001 (ip), vehicle: saline) 111 % of control; (endpoint: mean survival time, dose: 32.0 mg/kg/injection, schedule: Q04DX003 (ip), vehicle: saline) 123 % of control; (endpoint: mean survival time, dose: 48.0 mg/kg/injection, schedule: Q01DX001 (oral), vehicle: saline) 121 % of control; (endpoint: mean survival time, dose: 64.0 mg/kg/injection, schedule: Q01DX001 (ip), vehicle: saline) 118 % of control; (endpoint: median survival time, dose: 4.0 mg/kg/injection, schedule: Q04DX003 (ip), vehicle: alkali diluted with saline) 106 % of control. In addition, the T/C was 113 % of control (endpoint: median survival time, dose: 8.0 mg/kg/injection, schedule: Q04DX003 (ip), vehicle: alkali diluted with saline) and 121 % of control (endpoint: median survival time, dose: 16.0 mg/kg/injection, schedule: Q04DX003 (ip), vehicle: alkali diluted with saline).

As for `O=C(COc1ccccc1)Nc1ccc(Cl)cc1`, the T/C is, setting by setting: under setting [1], 89 % of control; under setting [2], 95 % of control; under setting [3], 90 % of control.

For the compound `O=C(O)Cc1cc2c(cc1I)OCO2`, the T/C runs as follows: (endpoint: mean survival time, dose: 100.0 mg/kg/injection, schedule: Q01DX009 (ip), vehicle: saline with Tween-80) 98 % of control; (endpoint: mean survival time, dose: 200.0 mg/kg/injection, schedule: Q01DX009 (ip), vehicle: saline with Tween-80) 104 % of control; (endpoint: mean survival time, dose: 400.0 mg/kg/injection, schedule: Q01DX009 (ip), vehicle: saline with Tween-80) 109 % of control.

`COC(=O)[C@H]1[C@H]2C[C@@H]3c4[nH]c5cc(OC)ccc5c4CCN3C[C@H]2C[C@@H](OC(=O)/C=C/c2cc(OC)c(OC)c(OC)c2)[C@@H]1OC`: the T/C (endpoint: mean survival time, dose: 3.12 mg/kg/injection, schedule: Q01DX009 (ip), vehicle: Klucel (hydroxypropylcellulose) (HPC)) was 96 % of control; the T/C (endpoint: mean survival time, dose: 6.25 mg/kg/injection, schedule: Q01DX009 (ip), vehicle: Klucel (hydroxypropylcellulose) (HPC)) is 96 % of control; the T/C (endpoint: mean survival time, dose: 12.5 mg/kg/injection, schedule: Q01DX009 (ip), vehicle: Klucel (hydroxypropylcellulose) (HPC)) is 105 % of control; the T/C (endpoint: mean survival time, dose: 25.0 mg/kg/injection, schedule: Q01DX009 (ip), vehicle: Klucel (hydroxypropylcellulose) (HPC)) is 96 % of control; the T/C (endpoint: mean survival time, dose: 25.0 mg/kg/injection, schedule: Q04DX003 (ip), vehicle: Klucel (hydroxypropylcellulose) (HPC)) was 111 % of control; the T/C (endpoint: mean survival time, dose: 50.0 mg/kg/injection, schedule: Q01DX009 (ip), vehicle: Klucel (hydroxypropylcellulose) (HPC)) is 100 % of control. Besides, where the note is “endpoint: mean survival time, dose: 50.0 mg/kg/injection, schedule: Q04DX003 (ip), vehicle: Klucel (hydroxypropylcellulose) (HPC)”, the T/C is 103 % of control.

With `Nc1nc(=O)n(CCCOc2ccc(NC(=O)Nc3cccc(S(=O)(=O)F)c3)cc2)cc1-c1ccc(Cl)c(Cl)c1`, the T/C reads like this: (endpoint: mean survival time, dose: 50.0 mg/kg/injection, schedule: Q01DX001 (ip), vehicle: saline with Tween-80) 98 % of control; (endpoint: mean survival time, dose: 100.0 mg/kg/injection, schedule: Q01DX001 (ip), vehicle: saline with Tween-80) 98 % of control; (endpoint: mean survival time, dose: 200.0 mg/kg/injection, schedule: Q01DX001 (ip), vehicle: saline with Tween-80) 95 % of control.

In the case of `CS1(=O)=CC(=O)CC(c2ccccc2)C1` (centres undefined), the T/C by setting is: (endpoint: mean survival time, dose: 100.0 mg/kg/injection, schedule: Q01DX001 (ip), vehicle: Klucel (hydroxypropylcellulose) (HPC)) 101 % of control; under setting [1], 107 % of control; (endpoint: mean survival time, dose: 100.0 mg/kg/injection, schedule: Q04DX003 (ip), vehicle: Klucel (hydroxypropylcellulose) (HPC)) 106 % of control; (endpoint: mean survival time, dose: 200.0 mg/kg/injection, schedule: Q01DX001 (ip), vehicle: Klucel (hydroxypropylcellulose) (HPC)) 98 % of control; under setting [2], 102 % of control; (endpoint: mean survival time, dose: 200.0 mg/kg/injection, schedule: Q04DX003 (ip), vehicle: Klucel (hydroxypropylcellulose) (HPC)) 104 % of control. Besides, the T/C was 98 % of control (endpoint: mean survival time, dose: 400.0 mg/kg/injection, schedule: Q01DX001 (ip), vehicle: Klucel (hydroxypropylcellulose) (HPC)); 107 % of control under setting [3]; 102 % of control (endpoint: mean survival time, dose: 400.0 mg/kg/injection, schedule: Q04DX003 (ip), vehicle: Klucel (hydroxypropylcellulose) (HPC)).
